Data: patent US20130172311A1, “Substituted heterocyclyl benzyl pyrazoles, and use thereof” (BAYER INTELLECTUAL PROPERTY GMBH, priority 2010, published 2013)
Each block holds one compound with its values, some of them ahead of it.

Columns and labels:
[1] = tested on: luciferase reporter under the control of an HIF-responsive sequence in HCT 116 cells; experiment: HIF luciferase assay; assay type: cell-based; settings: Homo sapiens, HCT 116 reporter cells, hypoxia chamber (1% O2), 24 h
Procedure: HCT 116 cells were stably transfected with a plasmid which contained a luciferase reporter under the control of an HIF-responsive sequence. These cells were sown in microtitre plates [20 000 cells/cavity in RPMI 1640 medium with 10% foetal calf serum (FCS) and 100 μg/ml of hygromycin]. They were incubated overnight under standard conditions (5% CO2, 21% O2, 37° C., moistened). The following morning the cells were incubated with different concentrations of the test substances (0-10 μmol/l) in a hypoxia chamber (1% O2). After 24 h, Bright Glo reagent (Promega, Wis., USA) was added in accordance with the manufacturer's instructions, and after 5 min the luminescence was measured. Cells which were incubated under normoxia served as background controls.

[2] = Pharmacokinetic parameters after intravenous administration in rats; assay type: in vivo; settings: rat, plasma, i.v., comparison compound, read-out: CLplasma (plasma clearance) (converted)
Procedure: (§1) The substance to be examined was administered to animals (for example mice or rats) intravenously as a solution (for example in corresponding plasma with a small addition of DMSO or in a PEG/ethanol/water mixture), and peroral administration was effected as a solution (for example in Solutol/ethanol/water or PEG/ethanol/water mixtures) or as a suspension (e.g. in tylose), in each case via a gavage. After administration of the substance, blood was taken from the animals at fixed times. The blood was heparinized, then plasma was obtained therefrom by centrifugation. The substance was quantified analytically in the plasma via LC-MS/MS. From the plasma concentration/time plots determined in this way, using an internal standard and with the aid of a validated computer program, the pharmacokinetic parameters, such as AUC (area under the concentration/time curve), Cmax, (maximum plasma concentration), t1/2 (half life), VSS (distribution volume) and CL (clearance), and the absolute and relative bioavailability F and Frei (i.v./p.o. comparison or comparison of suspension to solution after p.o. administration), were calculated.
The substance to be examined was administered intravenously to rats, in each case in amounts between 0.3 and 1.0 mg/kg as a solution in plasma which contained up to 2% DMSO.

[3] = Pharmacokinetic parameters after peroral administration in rats; assay type: in vivo; settings: for AUCnorm (dose-normalized exposure) / bioavailability: 1-3 mg/kg, solution in Solutol/ethanol/water; for bioavailability: rat, plasma, po, read-out: F (bioavailability)
Procedure: as §1
To determine the active ingredient release from a prodrug compound, the prodrug was administered either intravenously or perorally, as described above, and the concentrations both of the prodrug and of the active ingredient released were quantified in the processed plasma.
The substance to be examined was administered perorally to rats, in each case in amounts between 1 and 3 mg/kg as a solution in Solutol/ethanol/water (40:10:50 or 40:20:40). The kinetic parameters determined for Working Example 1 are shown below by way of example for the inventive compounds [AUCnorm=dose-normalized exposure (area under the concentration/time curve)]:
The second row in this table gives the pharmacokinetic parameters for Example 1, as obtained after peroral administration of the prodrug compound from Example 15 (1 mg/kg of crystalline substance as a tylose suspension in water).

[4] = pH-dependent hydrolysis stability; assay type: physicochemical; settings: HPLC area %; for % Example 1 active ingredient: released from prodrug Example 15
Procedure: 0.3 mg of the test substance (prodrug) was weighed into a 2 ml HPLC vial, and 0.6 ml of acetonitrile or acetonitrile/DMSO mixture (with up to 20 percent by volume of DMSO) was added. To dissolve the substance, the sample vessel was placed into an ultrasound bath for approx. 10 seconds. Subsequently, 1.0 ml of the particular aqueous buffer solution was added (commercially available buffer solutions of pH 2, 4, 6.5, 8 and 10) and the sample was treated again in the ultrasound bath. Over a period of 24 hours at 37° C., 5 μl of the sample solution were analysed by HPLC every hour for its content of unchanged prodrug or active ingredient released therefrom by hydrolysis. Quantification was effected via the area percentages of the corresponding HPLC peaks.

[5] = Plasma stability in vitro, rat plasma; assay type: in vitro ADME; settings: 37°C
Procedure: (§2) 1 mg of the test substance (prodrug) was weighed into a 2 ml HPLC vial, and 1.5 ml of DMSO and 1 ml of water were added. To dissolve the substance, the sample vessel was placed into an ultrasound bath for approx. 10 seconds. 0.5 ml of rat plasma or human plasma at 37° C. was added to 0.5 ml of this solution. The sample was agitated and approx. 10 μl were taken for a first analysis (time t0). […] The sample was kept at 37° C. over the test period. Characterization and quantification were effected by HPLC.

[6] = Plasma stability in vitro, human plasma; assay type: in vitro ADME; settings: 37°C
Procedure: as §2

IC50 [1]: 0.3 nM
SMILES: Cc1cc(-c2nc(-c3ccc(C4(C(F)(F)F)CC4)cc3)no2)nn1Cc1cccc(N2CCC(C#N)CC2)c1 [Example 12, 1-(3-{[5-Methyl-3-(3-{4-[1-(trifluoromethyl)cyclopropyl]phenyl}-1,2,4-oxadiazol-5-yl)-1H-pyrazol-1-yl]methyl}phenyl)piperidine-4-carbonitrile]

IC50 [1]: 0.3 nM
SMILES: Cc1cc(-c2nc(-c3ccc(C(C)(C)C(F)(F)F)cc3)no2)nn1Cc1cccc(N2CCC(C#N)CC2)c1 [Example 13, 1-{3-[(5-Methyl-3-{3-[4-(1,1,1-trifluoro-2-methylpropan-2-yl)phenyl]-1,2,4-oxadiazol-5-yl}-1H-pyrazol-1-yl)methyl]phenyl}piperidine-4-carbonitrile]

IC50 [1]: 0.5 nM
SMILES: Cc1cc(-c2nc(-c3ccc(SC(F)(F)F)cc3)no2)nn1Cc1cccc(N2CCC(O)CC2)c1 [Example 14, 1-(3-{[5-Methyl-3-(3-{4-[(trifluoromethyl)sulphanyl]phenyl}-1,2,4-oxadiazol-5-yl)-1H-pyrazol-1-yl]methyl}phenyl)piperidin-4-ol]

prodrug compound in plasma ([3]; p.o., 1 mg/kg as tylose suspension, all times examined): not detectable | % Example 15 prodrug ([4]; pH 2, 37°C, after 12 h): 89% | % Example 15 prodrug ([4]; pH 4, 37°C, after 12 h): 89% | % Example 15 prodrug ([4]; pH 6.5, 37°C, 0 h): 94% | % Example 15 prodrug ([4]; pH 6.5, 37°C, 2 h): 91% | % Example 15 prodrug ([4]; pH 6.5, 37°C, 4 h): 87% | % Example 15 prodrug ([4]; pH 6.5, 37°C, 6 h): 84% | % Example 15 prodrug ([4]; pH 6.5, 37°C, 12 h): 73% | % Example 15 prodrug ([4]; pH 6.5, 37°C, 24 h): 56% | % Example 15 prodrug ([4]; pH 8, 37°C, after 12 h): 64% | % Example 15 prodrug ([4]; pH 10, 37°C, after 12 h): 0% | % Example 15 prodrug ([5]; 0 h): 95% | % Example 15 prodrug ([5]; 0.5 h): 87% | % Example 15 prodrug ([5]; 1 h): 80% | % Example 15 prodrug ([5]; 1.5 h): 72% | % Example 15 prodrug ([5]; 2 h): 69% | % Example 15 prodrug ([5]; 4 h): 52% | % Example 15 prodrug ([6]; 0 h): 97% | % Example 15 prodrug ([6]; 0.5 h): 96% | % Example 15 prodrug ([6]; 1 h): 93% | % Example 15 prodrug ([6]; 1.5 h): 91% | % Example 15 prodrug ([6]; 2 h): 89% | % Example 15 prodrug ([6]; 4 h): 81% | melting point: 117 °C
SMILES: Cc1cc(-c2nc(-c3ccc(OC(F)(F)F)cc3)no2)nn1Cc1cccc(N2CC(OC(=O)CN(C)C)C2)c1 [Example 15, 1-{3-[(5-Methyl-3-{3-[4-(trifluoromethoxy)phenyl]-1,2,4-oxadiazol-5-yl}-1H-pyrazol-1-yl)methyl]phenyl}azetidin-3-yl N,N-dimethylglycinate]

Continued, compound first:

SMILES: Cc1ccc(Cn2nc(-c3nc(-c4ccc(OC(F)(F)F)cc4)no3)cc2C)cc1 [Example 1 in WO 2008/141731-A2, 5-[5-methyl-1-(4-methylbenzyl)-1H-pyrazol-3-yl]-3-[4-(trifluoromethoxy)phenyl]-1,2,4-oxadiazole, reference compound]
IC50 ([1]; comparison compound): 30 nM | clearance [2]: 6.67 mL/min/kg | AUCnorm (dose-normalized exposure) ([3]; p.o.): 1.9 kg·h/L | bioavailability [3]: 74%

SMILES: Cc1cc(-c2nc(-c3ccc(OC(F)(F)F)cc3)no2)nn1Cc1cccc(N2CC(O)C2)c1 [Example 1, 1-{3-[(5-Methyl-3-{3-[4-(trifluoromethoxy)phenyl]-1,2,4-oxadiazol-5-yl}-1H-pyrazol-1-yl)methyl]phenyl}azetidin-3-ol]
IC50 [1]: 0.7 nM | AUCnorm (dose-normalized exposure) ([3]; p.o.): 0.43 kg·h/L | AUCnorm of Example 1 after administration of prodrug Example 15 ([3]; p.o., prodrug Example 15, 1 mg/kg crystalline substance as tylose suspension in water): 0.35 kg·h/L | bioavailability [3]: 68% | % Example 1 active ingredient ([4]; pH 2, 37°C, after 12 h): 6% | % Example 1 active ingredient ([4]; pH 4, 37°C, after 12 h): 9% | % Example 1 active ingredient ([4]; pH 6.5, 37°C, 0 h): 3% | % Example 1 active ingredient ([4]; pH 6.5, 37°C, 2 h): 7% | % Example 1 active ingredient ([4]; pH 6.5, 37°C, 4 h): 10% | % Example 1 active ingredient ([4]; pH 6.5, 37°C, 6 h): 13% | % Example 1 active ingredient ([4]; pH 6.5, 37°C, 12 h): 22% | % Example 1 active ingredient ([4]; pH 6.5, 37°C, 24 h): 35% | % Example 1 active ingredient ([4]; pH 8, 37°C, after 12 h): 30% | % Example 1 active ingredient ([4]; pH 10, 37°C, after 12 h): 78%

SMILES: Cc1cc(-c2nc(-c3ccc(C4(C(F)(F)F)CC4)cc3)no2)nn1Cc1cccc(N2CC(O)C2)c1 [Example 2, 1-(3-{[5-Methyl-3-(3-{4-[1-(trifluoromethyl)cyclopropyl]phenyl}-1,2,4-oxadiazol-5-yl)-1H-pyrazol-1-yl]methyl}phenyl)azetidin-3-ol]
IC50 [1]: 0.6 nM

SMILES: Cc1cc(-c2nc(-c3ccc(C(C)(C)C(F)(F)F)cc3)no2)nn1Cc1cccc(N2CC(O)C2)c1 [Example 3, 1-{3-[(5-Methyl-3-{3-[4-(1,1,1-trifluoro-2-methylpropan-2-yl)phenyl]-1,2,4-oxadiazol-5-yl}-1H-pyrazol-1-yl)methyl]phenyl}azetidin-3-ol]
IC50 [1]: 0.6 nM

SMILES: Cc1cc(-c2nc(-c3ccc(OC(F)(F)F)cc3)no2)nn1Cc1cccc(N2CCC(O)CC2)c1 [Example 8, 1-{3-[(5-Methyl-3-{3-[4-(trifluoromethoxy)phenyl]-1,2,4-oxadiazol-5-yl}-1H-pyrazol-1-yl)methyl]phenyl}piperidin-4-ol]
IC50 [1]: 0.6 nM

SMILES: Cc1cc(-c2nc(-c3ccc(C4(C(F)(F)F)CC4)cc3)no2)nn1Cc1cccc(N2CCC(O)CC2)c1 [Example 9, 1-(3-{[5-Methyl-3-(3-{4-[1-(trifluoromethyl)cyclopropyl]phenyl}-1,2,4-oxadiazol-5-yl)-1H-pyrazol-1-yl]methyl}phenyl)piperidin-4-ol]
IC50 [1]: 0.5 nM

SMILES: Cc1cc(-c2nc(-c3ccc(C(C)(C)C(F)(F)F)cc3)no2)nn1Cc1cccc(N2CCC(O)CC2)c1 [Example 10, 1-{3-[(5-Methyl-3-{3-[4-(1,1,1-trifluoro-2-methylpropan-2-yl)phenyl]-1,2,4-oxadiazol-5-yl}-1H-pyrazol-1-yl)methyl]phenyl}piperidin-4-ol]
IC50 [1]: 0.4 nM

SMILES: Cc1cc(-c2nc(-c3ccc(OC(F)(F)F)cc3)no2)nn1Cc1cccc(N2CCC(C#N)CC2)c1 [Example 11, 1-{3-[(5-Methyl-3-{3-[4-(trifluoromethoxy)phenyl]-1,2,4-oxadiazol-5-yl}-1H-pyrazol-1-yl)methyl]phenyl}piperidine-4-carbonitrile]
IC50 [1]: 0.4 nM
